According to patent publication US5114464A, “4-quinoxalinyloxyphenoxyalkylinitrile herbicides” (Uniroyal Chemical Company, Inc., priority 1990, dated 1992):

Experiments:
velvet leaf [1] = test: Preemergence control of velvet leaf (Table I); assay type: in vivo, Abutilon theoohrasti Medic.; conditions: 11.2 kg/ha, two weeks after treatment
Protocol: (§1) To illustrate the effectiveness of the Compounds 1 and 2 of this invention as preemergence herbicides, 300 mg of each compound were dissolved in 10 ml acetone to which 30 mg of an emulsifying agent, ethoxylated sorbitan monolaurate, were added. The solution was diluted to 100 ml with distilled water. Ten milliliters of the 3000 ppm solution were diluted to 250 ppm with distilled water. The chemical was applied at the rate of 10 lb/A (11.2 kg/ha) by drenching 46 ml of the 250 ppm solution on the surface of soil in 41/2inch (11.25 cm) plastic pots wherein seeds of the following weeds had been planted: velvet leaf (Abutilon theoohrasti Medic.) (VL), prickly sida (sida soinosa L.) (PS), tall morningglory (Ioomea purourea L. Roth) (TM), switchgrass (Panicum viroatum L.) (SG), barnyard grass (Echinolchloa crus-oalli (L.) Beauv.) (BG), and green foxtail (Setaria viridis) (L.) Beauv.) (GF). The percent control of the weeds compared to untreated checks was determined two weeks after treatment.

prickly sida [2] = test: Preemergence control of prickly sida (Table I); assay type: in vivo, sida soinosa L.; conditions: 11.2 kg/ha, two weeks after treatment
Protocol: as §1

tall morningglory [3] = test: Preemergence control of tall morningglory (Table I); assay type: in vivo, Ioomea purourea L. Roth; conditions: 11.2 kg/ha, two weeks after treatment
Protocol: as §1

barnyard grass [4] = test: Preemergence control of barnyard grass (Table I); assay type: in vivo, Echinolchloa crus-oalli (L.) Beauv.; conditions: 11.2 kg/ha, two weeks after treatment
Protocol: as §1

switchgrass [5] = test: Preemergence control of switchgrass (Table I); assay type: in vivo, Panicum viroatum L.; conditions: 11.2 kg/ha, two weeks after treatment
Protocol: as §1

green foxtail [6] = test: Preemergence control of green foxtail (Table I); assay type: in vivo, Setaria viridis (L.) Beauv.; conditions: 11.2 kg/ha, two weeks after treatment
Protocol: as §1

velvet leaf [7] = test: Postemergence control of velvet leaf (Table II); assay type: in vivo, Abutilon theoohrasti Medic.; conditions: 3000 ppm, two weeks after treatment
Protocol: as §1
(§2) To test the effectiveness of Compounds 1 and 2 of this invention as postemergence herbicides, a 3000 ppm solution of each compound (produced in accordance with the process described under Example 3) was atomized employing a DEVILBISS [trademark] sprayer, wetting the foliage to the drip point. […] The percent weed control was evaluated two weeks after treatment.

prickly sida [8] = test: Postemergence control of prickly sida (Table II); assay type: in vivo, sida soinosa L.; conditions: 3000 ppm, two weeks after treatment
Protocol: as §1, §2

tall morningglory [9] = test: Postemergence control of tall morningglory (Table II); assay type: in vivo, Ioomea purourea L. Roth; conditions: 3000 ppm, two weeks after treatment
Protocol: as §1, §2

barnyard grass [10] = test: Postemergence control of barnyard grass (Table II); assay type: in vivo, Echinolchloa crus-oalli (L.) Beauv.; conditions: 3000 ppm, two weeks after treatment
Protocol: as §1, §2

switchgrass [11] = test: Postemergence control of switchgrass (Table II); assay type: in vivo, Panicum viroatum L.; conditions: 3000 ppm, two weeks after treatment
Protocol: as §1, §2

green foxtail [12] = test: Postemergence control of green foxtail (Table II); assay type: in vivo, Setaria viridis (L.) Beauv.; conditions: 3000 ppm, two weeks after treatment
Protocol: as §1, §2

switchgrass [13] = test: Postemergence selectivity, greenhouse: switchgrass control (Table III); assay type: in vivo, Panicum viroatum L.; conditions: 250 ppm, treated May 26, rated Jun. 12
Protocol: as §1
(§3) To illustrate the effectiveness of Compound 1 of this invention as a corn-safe selective postemergence herbicide, the 3000 ppm solution prepared as described in Example 3 was diluted with distilled water to 250 ppm and applied to foliage as described in Example 3. The commercial product Hoelon 3EC® (Hoechst) was included as a standard. […] The percent weed control and crop injury was determined on Jun. […]

barnyard grass [14] = test: Postemergence selectivity, greenhouse: barnyard grass control (Table III); assay type: in vivo, Echinolchloa crus-oalli (L.) Beauv.; conditions: 250 ppm, treated May 26, rated Jun. 12
Protocol: as §1, §3

green foxtail [15] = test: Postemergence selectivity, greenhouse: green foxtail control (Table III); assay type: in vivo, Setaria viridis (L.) Beauv.; conditions: 250 ppm, treated May 26, rated Jun. 12
Protocol: as §1, §3

corn = test: Postemergence selectivity, greenhouse: corn injury (Table III); assay type: in vivo; conditions: 250 ppm
Protocol: as §1, §3

soybean = test: Postemergence selectivity, greenhouse: soybean injury (Table III); assay type: in vivo; conditions: 250 ppm, treated May 26, rated Jun. 12
Protocol: as §1, §3

cotton = test: Postemergence selectivity, greenhouse: cotton injury (Table III); assay type: in vivo; conditions: 250 ppm, treated May 26, rated Jun. 12
Protocol: as §1, §3

Giant foxtail = test: Postemergence selectivity, field test: Giant foxtail control (Table IV); assay type: in vivo; conditions: 33 days after treatment
Protocol: (§4) To further illustrate the effectiveness of Compound 1 of this invention as a corn-safe selective postemergence herbicide, field tests were run in which five corn hybrids (designated C9979, C6114, C8004 and C1914 by the Independent Professional Seedsmans Association, and Pioneer 3295) along with two grass weeds (Giant foxtail, "GF"; and Barnyard grass, "BG") were planted in an Illinois field on April 24. The crops were treated with various amounts of Compound 1 in early Jun., and the amount of crop control was evaluated 33 days after treatment compared to an untreated control. The active ingredient was formulated as follows: […]
(§5) That produces a formulation containing 10% active ingredient by weight. The required amount of formulation to produce the indicated rate per acre is added to water, mixed with one quart of an adjuvant containing 83% mineral oil and 17% emulsifiers, then brought up to a total spray volume of 20 gallons per acre with water.

Barnyard grass [16] = test: Postemergence selectivity, field test: Barnyard grass control (Table IV); assay type: in vivo; conditions: 33 days after treatment
Protocol: as §4, §5

corn hybrids = test: Postemergence selectivity, field test: corn hybrids (Table IV); assay type: in vivo; conditions: for Percent corn crop control (injury): 33 days
Protocol: as §4, §5

weeds [17] = test: Preemergence control, summary statement; assay type: in vivo; conditions: 11.2 kg/ha
Protocol: as §1

weeds [18] = test: Postemergence control, summary statement; assay type: in vivo; conditions: 3000 ppm
Protocol: as §1, §2

grass weeds [19] = test: Postemergence selectivity greenhouse (Example 5), summary for grass weeds; assay type: in vivo; conditions: 250 ppm
Protocol: as §1, §3

grass weeds [20] = test: Postemergence selectivity field test (Example 6), summary for grass weeds; assay type: in vivo; conditions: 0.125 to 0.50 lb/a
Protocol: as §4, §5

N#CCOc1ccc(Oc2cnc3cc(Cl)ccc3n2)cc1 [Compound 1, 2-[4-(6-chloro-2-quinoxalinyloxy)phenoxy]acetonitrile]
% Control VL (velvet leaf [1]): 0%
% Control PS (prickly sida [2]): 0%
% Control TM (tall morningglory [3]): 0%
% Control BG (barnyard grass [4]): 100%
% Control SG (switchgrass [5]): 50%
% Control GF (green foxtail [6]): 90%
% Control VL (velvet leaf [7]): 0%
% Control PS (prickly sida [8]): 0%
% Control TM (tall morningglory [9]): 0%
% Control BG (barnyard grass [10]): 100%
% Control SG (switchgrass [11]): 100%
% Control GF (green foxtail [12]): 9%
Percent weed control SG (switchgrass [13]): 100%
Percent Weed Control BG (barnyard grass [14]): 100%
Percent Weed Control GF (green foxtail [15]): 90%
corn safety (corn): substantially innocuous to corn
Percent crop injury CORN (corn; treated May 26, rated Jun. 12): 0%
Percent crop injury SOYBEAN (soybean): 0%
Percent crop injury COTTON (cotton): 0%
Percent Weed Control GF (Giant foxtail; 0.125 lb/a): 99.3%
Percent Weed Control GF (Giant foxtail; 0.25 lb/a): 100%
Percent Weed Control GF (Giant foxtail; 0.50 lb/a): 100%
Percent Weed Control BG (Barnyard grass [16]; 0.125 lb/a): 30.0%
Percent Weed Control BG (Barnyard grass [16]; 0.25 lb/a): 43.3%
Percent Weed Control BG (Barnyard grass [16]; 0.50 lb/a): 90.0%
corn safety (corn hybrids; 0.125 to 0.50 lb/a): substantially innocuous to corn
Percent corn crop control (injury) (corn hybrids; corn hybrid C1914, 0.125 lb/a): 0%
Percent corn crop control (injury) (corn hybrids; corn hybrid C1914, 0.25 lb/a): 0%
Percent corn crop control (injury) (corn hybrids; corn hybrid C1914, 0.50 lb/a): 0%
Percent corn crop control (injury) (corn hybrids; corn hybrid C6114, 0.125 lb/a): 0%
Percent corn crop control (injury) (corn hybrids; corn hybrid C6114, 0.25 lb/a): 0%
Percent corn crop control (injury) (corn hybrids; corn hybrid C6114, 0.50 lb/a): 0%
Percent corn crop control (injury) (corn hybrids; corn hybrid C8004, 0.125 lb/a): 0%
Percent corn crop control (injury) (corn hybrids; corn hybrid C8004, 0.25 lb/a): 0%
Percent corn crop control (injury) (corn hybrids; corn hybrid C8004, 0.50 lb/a): 0%
Percent corn crop control (injury) (corn hybrids; corn hybrid C9979, 0.125 lb/a): 0%
Percent corn crop control (injury) (corn hybrids; corn hybrid C9979, 0.25 lb/a): 0%
Percent corn crop control (injury) (corn hybrids; corn hybrid C9979, 0.50 lb/a): 0%
Percent corn crop control (injury) (corn hybrids; corn hybrid Pioneer 3295, 0.125 lb/a): 0%
Percent corn crop control (injury) (corn hybrids; corn hybrid Pioneer 3295, 0.25 lb/a): 0%
Percent corn crop control (injury) (corn hybrids; corn hybrid Pioneer 3295, 0.50 lb/a): 0%
herbicidal efficacy (weeds [17]): good to excellent herbicidal efficacy
postemergent herbicidal control (weeds [18]): desirable postemergent herbicidal control
control of several grass weeds (grass weeds [19]): good control of several grass weeds
control of several grass weeds (grass weeds [20]): good control of several grass weeds
